Results reported in US20250170085A1, “TOPICAL FORMULATION TO DECREASE SKIN INFLAMMATION OR REDNESS” (University of Pittsburgh - Of the Commonwealth System of …, priority 2022, published 2025).

Columns and labels:
[1] = Patient-reported itching after facial application of 5% w/w β-alanine cream with menthol; format: in vivo, human
From the text: (§1) FIGS. 2A and 2B show subjective patient-reported scoring for itch (FIG. 2A) and overall discomfort (FIG. 2B) of facially applied cream containing 5% w/w β-alanine and the indicated concentration of menthol. Each of the four formulations (0%, 0.5%, 1.0%, and 1.5% w/w menthol with 5% w/w f-alanine) were sequentially applied to different locations of a patient's cheek skin by a physician. Scoring was on a scale of 0 to 10, with 0 being no itch or discomfort and 10 being maximum itch or discomfort. Each symbol represents an individual patient (n=10). Bar height indicates the average value. Error bars represent +/−SEM. * P<0.05; ** P<0.01. P-values were calculated using a nonparametric ANOVA Kruskai-Wallis test.
A cohort of patients without inflammatory skin conditions (n=10) was given four different topical formulations for facial application. All four formulations contained 5% w/w β-alanine in Versapro® Cream (see, e.g., Example 1), however, each contained a different concentration of menthol (0.0%, 0.5%, 1.0%, and 1.5% w/w). A physician sequentially applied 0.1 ml of each formulation to distinct areas of the cheek with a 10 minute pause between each application. Patients were asked to rate the degree of itching and overall discomfort on a scale of 0 (no itching) to 10 (maximal itching) over the course of 5 minutes. […]

[2] = Patient-reported overall discomfort (eye irritation, cold sensation) after facial application of 5% w/w β-alanine cream with menthol; format: in vivo, human; conditions: for overall discomfort, scale 0 to 10: attributable to eye irritation and an unpleasant cold sensation
From the text: as §1
A cohort of patients without inflammatory skin conditions (n=10) was given four different topical formulations for facial application. All four formulations contained 5% w/w β-alanine in Versapro® Cream (see, e.g., Example 1), however, each contained a different concentration of menthol (0.0%, 0.5%, 1.0%, and 1.5% w/w). A physician sequentially applied 0.1 ml of each formulation to distinct areas of the cheek with a 10 minute pause between each application. Patients were asked to rate the degree of itching and overall discomfort on a scale of 0 (no itching) to 10 (maximal itching) over the course of 5 minutes. The same process was repeated for the 0.5%, 1.0% and 1.5% w/w menthol containing formulations.

[3] = Protocol: The four β-alanine formulations (0%, 2.5%, 5.0%, and 7.5% w/w β-alanine) were sequentially applied to a different location of each patient's cheek skin by a physician. Subjective scoring for itch (0 (none) to 10 (maximum itch)) was recorded over a 5-minute period. Symbols on the bar graph represent individual patients (n=16). Bar height indicates the average value. […] P-values were calculated using a nonparametric ANOVA Kruskai-Wallis test.
β-alanine powder (GNC, #369898) was mixed into Versapro® Cream at a concentration of 0%, 2.5%, 5.0% or 7.5% w/w. The ingredients of Versapro® Cream include water, aloe Barbadensis leaf juice, cyclopentasiloxane, disodium EDTA, emulsifying wax NF, ethylhexglyglycering, ethylhexyl stearate, phenoxyethanol, sorbitol, and tocopheryl acetate. The mixture was agitated until homogenous.
A cohort of patients without skin disease were selected for testing (n=16). Each patient had 0.1 ml of cream applied to cheek skin by a physician. Over the course of 5 minutes, the patients reported the intensity of pruritus (itching) on a scale of 0 (no itching) to 10 (maximal itching). The process was repeated for all four formulations (0%, 2.5%, 5.0% or 7.5% w/w β-alanine) using different areas of cheek skin. The efficacy of topical J3-alanine was determined based on the development of pruritus.

[4] = 0.5% w/w menthol in 5% w/w β-alanine cream

| Structure (SMILES) | intensity of itching [1, 4] | degree of itching, scale 0 to 10 ([1]; all concentrations of menthol (0.5%, 1.0%, 1.5% w/w) in 5% w/w β-alanine Versapro Cream, 0.1 ml on cheek, over 5 minutes, n=10) | eye discomfort [2, 4] | overall discomfort, scale 0 to 10 ([2]; 1.0% w/w menthol in 5% w/w β-alanine cream) | overall discomfort, scale 0 to 10 ([2]; 1.5% w/w menthol in 5% w/w β-alanine cream) | intensity of pruritus (itching), scale 0 to 10 ([3]; 2.5% w/w β-alanine in Versapro Cream, 0.1 ml on cheek skin, over 5 minutes, patients without skin disease (n=16)) | duration of pruritus triggered by topical cream ([3]; topical β-alanine cream on cheek skin) |
| --- | --- | --- | --- | --- | --- | --- | --- |
| CC1CCC(C(C)C)C(O)C1 (stereo not shown) [menthol, 5-methyl-2-(propan-2-yl)cyclohexan-1-ol] | successfully decreased | notably reduced | without promoting eye discomfort | increased | increased | – | – |
| NCCC(=O)O [β-alanine, 3-aminopropanoic acid] | – | – | – | – | – | evident | less than 5 minutes |
